In patent US20130029970A1 (priority 2009, published 2013) one finds EC50 and IC50 data, which are given here for 26 molecules.

The target in experiment [1] is T1, human CB2 receptors (Homo sapiens, UniProt P34972).
T1 construct: (cDNA clone) CNR0200000
Briefly: cAMP assay in HEK-293 cells, hCB2 agonist. Conditions: inhibition of forskolin-stimulated cAMP, HEK-293 cells; read-out: hCB2 EC50 (cAMP ag). The experiment is classed as cell-based. A digest of the protocol: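 Stable hCB2 HEK-293 cells in HBSS/10 mM HEPES/0.1% fatty-acid-free BSA incubated 30 min at 37° C with compound; forskolin 90 uM in 3× compound mix.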
A general note: Cyclic AMP is a second messenger, typically raised through Gs and lowered through Gi signalling.

The target of experiment [2] is T2, human CB2 (hCB2) (Homo sapiens, UniProt P34972).
T2 construct: (cDNA clone) CNR0200000
Kind of experiment: 35S GTPγS binding assay, hCB2 agonist. Conditions: GTPγS agonist, HEK-293 membranes; read-out: hCB2 EC50 (GTPyS ag). The experiment is classed as biochemical. A digest of the protocol: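 Agonist-stimulated [35S]GTPγS (0.1 nM) binding measured by scintillation proximity after 90 min at room temperature. Reaction buffer: 50 mM HEPES pH 7.4, 100 mM NaCl, 5 mM MgCl2, 0.001% saponin plus 20 uM GDP. Membranes (5 μg) came from transfected cells expressing hCB2 cDNA (pcDNA3.1+ vector).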
In general terms: GTPγS resists hydrolysis and so accumulates on activated G proteins.

Experiment [3] concerns the target T3, recombinant human cannabinoid receptor CB1 (Homo sapiens, UniProt P21554).
T3 construct: (cDNA clone) CNR01L000
Briefly: Cannabinoid receptor radioligand binding assay, [3H]-CP 55,940 displacement, hCB1. The essentials:
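Displacement of 0.5 nM [3H]-CP 55,940 (1 μM unlabeled CP 55,940 for nonspecific) measured by filtration and scintillation counting. Binding ran 90 min at room temperature in pH 7.5 Tris buffer with 0.1% fatty-acid-free BSA, using recombinant hCB1 HEK-293 membranes at 2-10 μg protein.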

T1 sequence (P34972 whole entry): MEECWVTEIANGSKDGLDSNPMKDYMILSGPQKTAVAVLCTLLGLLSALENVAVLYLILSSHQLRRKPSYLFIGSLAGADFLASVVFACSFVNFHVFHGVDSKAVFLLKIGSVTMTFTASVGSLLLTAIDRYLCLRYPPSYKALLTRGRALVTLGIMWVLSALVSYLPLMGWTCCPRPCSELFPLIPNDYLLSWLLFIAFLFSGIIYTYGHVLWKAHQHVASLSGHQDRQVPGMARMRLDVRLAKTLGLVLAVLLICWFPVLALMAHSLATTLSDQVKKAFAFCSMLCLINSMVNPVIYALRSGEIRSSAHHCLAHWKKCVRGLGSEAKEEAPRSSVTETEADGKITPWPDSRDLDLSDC
T2 sequence (P34972 whole entry): as above
T3 sequence (P21554 whole entry): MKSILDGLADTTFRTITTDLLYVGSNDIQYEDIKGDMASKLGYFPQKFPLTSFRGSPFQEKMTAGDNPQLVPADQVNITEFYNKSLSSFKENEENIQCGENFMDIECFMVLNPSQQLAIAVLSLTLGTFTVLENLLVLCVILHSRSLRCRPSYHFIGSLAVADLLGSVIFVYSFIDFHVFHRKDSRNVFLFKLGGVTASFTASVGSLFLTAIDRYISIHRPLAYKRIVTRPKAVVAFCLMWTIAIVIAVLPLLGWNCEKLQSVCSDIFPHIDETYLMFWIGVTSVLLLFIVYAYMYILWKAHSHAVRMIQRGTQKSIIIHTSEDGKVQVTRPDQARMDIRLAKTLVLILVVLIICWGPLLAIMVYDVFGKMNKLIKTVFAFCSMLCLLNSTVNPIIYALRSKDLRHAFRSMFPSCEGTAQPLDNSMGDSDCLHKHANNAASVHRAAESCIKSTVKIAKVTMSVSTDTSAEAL

What is called EC50 is the concentration giving half of the maximal effect. A word on the IC50: it is the concentration that inhibits the measured activity by half. For `CCOc1ccc(C(=O)c2cc3cc(C)n(CCN4CCOCC4)c3s2)c(Cl)c1` [Compound 126, (2-chloro-4-ethoxyphenyl)(5-methyl-6-(2-morpholinoethyl)-6H-thieno[2,3-b]pyrrol-2-yl)methanone], the EC50 in experiment [1] and in experiment [2] was < 100 nM in each case. In addition, in experiment [3], the IC50 fell in the range of 100 to 1000 nM.

On to `Cc1cc2cc(C(=O)c3cccc(Cl)c3Cl)sc2n1CCc1ccccc1` [Compound 30, (2,3-Dichlorophenyl)(5-methyl-6-phenethyl-6H-thieno[2,3-b]pyrrol-2-yl)methanone], for which the EC50 in experiment [1] and in experiment [2] was < 100 nM throughout. Besides, the IC50 in experiment [3] lay within 100 to 1000 nM.

For `COc1ccc(C(=O)c2cc3cc(C)n(CCN4CCOCC4)c3s2)c(OC)c1` [Compound 120, (2,4-Dimethoxyphenyl)(5-methyl-6-(2-morpholinoethyl)-6H-thieno[2,3-b]pyrrol-2-yl)methanone], the EC50 in experiment [1] and in experiment [2] was < 100 nM throughout. Further, the half-maximal inhibitory concentration (IC50) in experiment [3] fell in the range of 100 to 1000 nM.

Consider `COc1ccc(C(=O)c2cc3cc(C)n(CCN4CCCOCC4)c3s2)cn1` [Compound 158, (6-(2-(1,4-oxazepan-4-yl)ethyl)-5-methyl-6H-thieno[2,3-b]pyrrol-2-yl)(6-methoxypyridin-3-yl)methanone], for which the results for the EC50 in experiment [1] and in experiment [2] were < 100 nM and 100 to 1000 nM, respectively. Moreover, the IC50 in experiment [3] was in the range of 100 to 1000 nM.

In the case of `Cc1cc2cc(C(=O)c3ccc(F)cc3F)sc2n1CCN1CCOCC1` [Compound 135, (2,4-difluorophenyl)(5-methyl-6-(2-morpholinoethyl)-6H-thieno[2,3-b]pyrrol-2-yl)methanone], the half-maximal effective concentration (EC50) was < 100 nM in experiment [1] and 100 to 1000 nM in experiment [2]. In addition, the IC50 in experiment [3] fell in the range of 1000 to 10000 nM.

For the molecule `COc1ccc(C(=O)c2cc3cc(C)n(CCN4CCOCC4)c3s2)c(C)n1` [Compound 136, (6-methoxy-2-methylpyridin-3-yl)(5-methyl-6-(2-morpholinoethyl)-6H-thieno[2,3-b]pyrrol-2-yl)methanone], the EC50 in experiment [1] and in experiment [2] was < 100 nM each time. The IC50 in experiment [3] is 1000 to 10000 nM.

For `CCS(=O)(=O)n1c(C)cc2cc(C(=O)c3ccccc3Cl)sc21` [Compound 42, (2-Chlorophenyl)(6-(ethylsulfonyl)-5-methyl-6H-thieno[2,3-b]pyrrol-2-yl)methanone], the EC50 in experiment [1] and in experiment [2] was < 100 nM each time. For the same molecule, in experiment [3], the IC50 fell in the range of 1000 to 10000 nM.

Turning to `COc1ccc(C(=O)c2cc3cc(C)n(CCN4CCC(OC)C4)c3s2)cn1` (stereo not drawn) [Compound 147, (6-methoxypyridin-3-yl)(6-(2-(3-methoxypyrrolidin-1-yl)ethyl)-5-methyl-6H-thieno[2,3-b]pyrrol-2-yl)methanone], the EC50 in experiment [1] and in experiment [2] was 100 to 1000 nM in each case. Moreover, the IC50 in experiment [3] is > 10000 nM.

As for `COc1ccc(C(=O)c2cc3cc(C)n(S(=O)(=O)N(C)C)c3s2)cc1` [Compound 51, 2-(4-Methoxybenzoyl)-N,N,5-trimethyl-6H-thieno[2,3-b]pyrrole-6-sulfonamide], the EC50 in experiment [1] and in experiment [2] was < 100 nM throughout. Moreover, the IC50 in experiment [3] is 1000 to 10000 nM.

On to `Cc1cc2cc(C(=O)c3ccc(F)cc3)sc2n1CCN1CCOCC1` [Compound 54, (4-Fluorophenyl)(5-methyl-6-(2-morpholinoethyl)-6H-thieno[2,3-b]pyrrol-2-yl)methanone], for which the EC50 in experiment [1] and in experiment [2] was < 100 nM in each case. The IC50 in experiment [3] is 1000 to 10000 nM.

For the molecule `Cc1cc2cc(C(=O)c3cccc(Cl)c3Cl)sc2n1CC1CCOCC1` [Compound 31, (2,3-Dichlorophenyl)(5-methyl-6-((tetrahydro-2H-pyran-4-yl)methyl)-6H-thieno[2,3-b]pyrrol-2-yl)methanone], the EC50 in experiment [1] and in experiment [2] was < 100 nM each time. Besides, in experiment [3], the concentration for half-maximal inhibition (IC50) was 100 to 1000 nM.

`COc1ccc(C(=O)c2cc3cc(C)n(CCCNS(C)(=O)=O)c3s2)cc1` [Compound 44, N-(3-(2-(4-methoxybenzoyl)-5-methyl-6H-thieno[2,3-b]pyrrol-6-yl)propyl)methanesulfonamide]: the concentration for a half-maximal effect (EC50) in experiment [1] and in experiment [2] was < 100 nM in each case. Further, the IC50 in experiment [3] lay in the range of 1000 to 10000 nM.

Regarding `COc1ccc(C(=O)c2cc3cc(C)n(CCN4CCOCC4)c3s2)cc1F` [Compound 128, (3-fluoro-4-methoxyphenyl)(5-methyl-6-(2-morpholinoethyl)-6H-thieno[2,3-b]pyrrol-2-yl)methanone], the values for the EC50 in experiment [1] and in experiment [2] were 100 to 1000 nM and < 100 nM, respectively. Moreover, the IC50 in experiment [3] fell in the range of 1000 to 10000 nM.

With `CCn1c(C)cc2cc(C(=O)c3cccc(Cl)c3Cl)sc21` [Compound 19, (2,3-Dichlorophenyl)(6-ethyl-5-methyl-6H-thieno[2,3-b]pyrrol-2-yl)methanone], the EC50 was < 100 nM in experiment [1] and 100 to 1000 nM in experiment [2]. In addition, the IC50 in experiment [3] was > 10000 nM.

Regarding `CCS(=O)(=O)n1c(C)cc2cc(C(=O)c3ccc(OC)cc3)sc21` [Compound 56, (6-(Ethylsulfonyl)-5-methyl-6H-thieno[2,3-b]pyrrol-2-yl)(4-methoxyphenyl)methanone], the EC50 in experiment [1] and in experiment [2] was < 100 nM each time. For the same molecule, the 50% inhibitory concentration (IC50) in experiment [3] was > 10000 nM.

Turning to `COc1ccc(C(c2cc3cc(C)n(CCN4CCOCC4)c3s2)C(F)(F)F)cc1` (stereo not drawn) [Compound 141, 4-(2-(5-methyl-2-(2,2,2-trifluoro-1-(4-methoxyphenyl)ethyl)-6H-thieno[2,3-b]pyrrol-6-yl)ethyl)morpholine], the figures for the EC50 in experiment [1] and in experiment [2] were < 100 nM and 100 to 1000 nM, respectively. In experiment [3], the IC50 fell in the range of 1000 to 10000 nM.

For `Cc1cc2cc(Cc3cccc(Cl)c3Cl)sc2n1CCN1CCOCC1` [Compound 32, 4-(2-(2-(2,3-Dichlorobenzyl)-5-methyl-6H-thieno[2,3-b]pyrrol-6-yl)ethyl)morpholine], the EC50 in experiment [1] and in experiment [2] was < 100 nM each time. Further, the IC50 in experiment [3] was 1000 to 10000 nM.

Turning to `COc1ncccc1C(=O)c1cc2cc(C)n(CCN3CCOCC3)c2s1` [Compound 47, (2-Methoxypyridin-3-yl)(5-methyl-6-(2-morpholinoethyl)-6H-thieno[2,3-b]pyrrol-2-yl)methanone], the values for the 50% effective concentration (EC50) in experiment [1] and in experiment [2] were < 100 nM and 100 to 1000 nM, respectively. In addition, the IC50 in experiment [3] is > 10000 nM.

`COc1cccc(C(=O)c2cc3cc(C)n(CCN4CCOCC4)c3s2)c1` [Compound 26, (3-Methoxyphenyl)(5-methyl-6-(2-morpholinoethyl)-6H-thieno[2,3-b]pyrrol-2-yl)methanone]: the EC50 in experiment [1] and in experiment [2] was < 100 nM each time. Further, in experiment [3], the IC50 is 100 to 1000 nM.

On to `Cc1cc2cc(C(=O)c3ccc(Cl)cc3Cl)sc2n1CCN1CCOCC1` [Compound 10, (2,4-Dichlorophenyl)(5-methyl-6-(2-morpholinoethyl)-6H-thieno[2,3-b]pyrrol-2-yl)methanone], for which the EC50 in experiment [1] and in experiment [2] was < 100 nM throughout. In experiment [3], the concentration for half-maximal inhibition (IC50) was 100 to 1000 nM.

Consider `COc1ccc(C(=O)c2cc3cc(C)n(CCC4CCOCC4)c3s2)cc1` [Compound 82, (4-Methoxyphenyl)(5-methyl-6-(2-(tetrahydro-2H-pyran-4-yl)ethyl)-6H-thieno[2,3-b]pyrrol-2-yl)methanone], for which the half-maximal effective concentration (EC50) in experiment [1] and in experiment [2] was < 100 nM throughout. In experiment [3], the half-maximal inhibitory concentration (IC50) is 100 to 1000 nM.

On to `COc1ccc(C(=O)c2cc3cc(C)n(CCN4CCCC4)c3s2)cn1` [Compound 167, (6-methoxypyridin-3-yl)(5-methyl-6-(2-(pyrrolidin-1-yl)ethyl)-6H-thieno[2,3-b]pyrrol-2-yl)methanone], for which the results for the EC50 in experiment [1] and in experiment [2] were < 100 nM and 1000 to 10000 nM, respectively. For the same molecule, in experiment [3], the 50% inhibitory concentration (IC50) is < 100 nM.

Consider `COc1ccc(C(=O)c2cc3cc(C)n(CCCNS(C)(=O)=O)c3s2)c(Cl)c1` [Compound 91, N-(3-(2-(2-Chloro-4-methoxybenzoyl)-5-methyl-6H-thieno[2,3-b]pyrrol-6-yl)propyl)methanesulfonamide], for which the EC50 in experiment [1] and in experiment [2] was < 100 nM in each case. Moreover, the IC50 in experiment [3] is > 10000 nM.

For `Cc1cc2cc(C(=O)c3cccc(Cl)c3Cl)sc2n1S(=O)(=O)C(C)C` [Compound 38, (2,3-Dichlorophenyl)(6-(isopropylsulfonyl)-5-methyl-6H-thieno[2,3-b]pyrrol-2-yl)methanone], the half-maximal effective concentration (EC50) in experiment [1] and in experiment [2] was < 100 nM in each case. Also, the IC50 in experiment [3] was in the range of 1000 to 10000 nM.

Turning to `Cc1ccccc1C(=O)c1cc2cc(C)n(CCN3CCOCC3)c2s1` [Compound 12, (5-Methyl-6-(2-morpholinoethyl)-6H-thieno[2,3-b]pyrrol-2-yl)(o-tolyl)methanone], the half-maximal effective concentration (EC50) in experiment [1] and in experiment [2] was < 100 nM in each case. Besides, in experiment [3], the IC50 lay in the range of 1000 to 10000 nM.

For `COc1cc(F)ccc1C(=O)c1cc2cc(C)n(CCN3CCOCC3)c2s1` [Compound 133, (4-fluoro-2-methoxyphenyl)(5-methyl-6-(2-morpholinoethyl)-6H-thieno[2,3-b]pyrrol-2-yl)methanone], the 50% effective concentration (EC50) in experiment [1] and in experiment [2] was < 100 nM throughout. For the same molecule, the IC50 in experiment [3] lay in the range of 100 to 1000 nM.
